Assays:
human H4R = human H4R (Homo sapiens, UniProt Q9H3N8); assay: Human H4R radioligand displacement assay; settings: read-out: hH4R Inhibition at 10 µM [%] (n)
human AChE = human AChE (Homo sapiens, UniProt P22303); assay: Inhibition of AChE; format: biochemical; settings: for inhibition at 10 µM: read-out: AChE Inhibition at 10 µM [%]
human H1R = human H1R (Homo sapiens, UniProt P35367); assay: Human H1R radioligand displacement assay; format: binding; settings: for inhibition at 10 µM: read-out: hH1R Inhibition at 10 µM [%] ±SD (n); for inhibition at 1 µM: read-out: hH1R Inhibition at 1 µM [%] (n)
human H3R = human H3R (Homo sapiens, UniProt Q9Y5N1); assay: Human H3R radioligand displacement assay; settings: for inhibition at 1 µM: read-out: hH3R Inhibition at 1 µM [%] ±SD (n)
Sequence of human H3R (Q9Y5N1 whole entry): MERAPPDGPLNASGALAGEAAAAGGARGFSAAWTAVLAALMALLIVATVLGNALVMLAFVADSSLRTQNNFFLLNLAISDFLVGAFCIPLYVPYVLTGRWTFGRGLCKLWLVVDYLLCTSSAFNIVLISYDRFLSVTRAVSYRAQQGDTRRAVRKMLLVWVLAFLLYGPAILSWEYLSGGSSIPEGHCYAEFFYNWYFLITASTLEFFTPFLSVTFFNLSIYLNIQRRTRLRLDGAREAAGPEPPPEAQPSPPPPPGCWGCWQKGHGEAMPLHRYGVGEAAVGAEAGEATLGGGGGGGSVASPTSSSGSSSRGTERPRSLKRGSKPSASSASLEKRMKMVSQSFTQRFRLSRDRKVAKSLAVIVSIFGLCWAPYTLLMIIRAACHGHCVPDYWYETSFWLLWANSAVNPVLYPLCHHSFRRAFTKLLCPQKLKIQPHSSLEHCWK

Sequence of human AChE (P22303 32-614): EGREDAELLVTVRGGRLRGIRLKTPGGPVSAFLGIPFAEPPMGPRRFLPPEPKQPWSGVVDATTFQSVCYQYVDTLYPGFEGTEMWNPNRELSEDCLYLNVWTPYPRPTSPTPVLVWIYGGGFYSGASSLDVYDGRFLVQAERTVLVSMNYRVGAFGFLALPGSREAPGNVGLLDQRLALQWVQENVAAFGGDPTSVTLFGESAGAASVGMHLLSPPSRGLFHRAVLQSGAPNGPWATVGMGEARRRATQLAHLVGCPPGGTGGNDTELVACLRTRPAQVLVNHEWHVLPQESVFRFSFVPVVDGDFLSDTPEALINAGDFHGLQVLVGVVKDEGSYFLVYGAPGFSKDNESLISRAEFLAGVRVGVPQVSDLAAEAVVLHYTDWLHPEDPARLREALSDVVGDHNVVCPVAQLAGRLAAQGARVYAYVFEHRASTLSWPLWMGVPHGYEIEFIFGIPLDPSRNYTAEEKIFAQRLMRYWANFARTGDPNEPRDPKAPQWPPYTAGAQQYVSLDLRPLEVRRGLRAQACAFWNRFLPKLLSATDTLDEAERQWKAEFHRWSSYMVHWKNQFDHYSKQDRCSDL
Sequence of human H1R (P35367 whole entry): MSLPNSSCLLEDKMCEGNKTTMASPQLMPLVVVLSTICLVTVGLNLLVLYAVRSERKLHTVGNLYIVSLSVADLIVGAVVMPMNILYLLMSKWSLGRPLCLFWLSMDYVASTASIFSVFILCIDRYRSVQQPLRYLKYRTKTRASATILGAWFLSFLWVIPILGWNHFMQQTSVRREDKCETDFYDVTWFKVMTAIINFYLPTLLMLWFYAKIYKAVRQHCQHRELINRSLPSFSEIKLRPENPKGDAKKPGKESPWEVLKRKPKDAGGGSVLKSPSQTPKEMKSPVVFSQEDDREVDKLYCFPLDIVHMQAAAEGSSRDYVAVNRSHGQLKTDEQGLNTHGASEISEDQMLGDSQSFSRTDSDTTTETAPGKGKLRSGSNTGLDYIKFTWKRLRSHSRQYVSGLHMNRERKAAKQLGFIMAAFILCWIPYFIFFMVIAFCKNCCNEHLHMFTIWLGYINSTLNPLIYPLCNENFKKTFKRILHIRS
Sequence of human H4R (Q9H3N8 whole entry): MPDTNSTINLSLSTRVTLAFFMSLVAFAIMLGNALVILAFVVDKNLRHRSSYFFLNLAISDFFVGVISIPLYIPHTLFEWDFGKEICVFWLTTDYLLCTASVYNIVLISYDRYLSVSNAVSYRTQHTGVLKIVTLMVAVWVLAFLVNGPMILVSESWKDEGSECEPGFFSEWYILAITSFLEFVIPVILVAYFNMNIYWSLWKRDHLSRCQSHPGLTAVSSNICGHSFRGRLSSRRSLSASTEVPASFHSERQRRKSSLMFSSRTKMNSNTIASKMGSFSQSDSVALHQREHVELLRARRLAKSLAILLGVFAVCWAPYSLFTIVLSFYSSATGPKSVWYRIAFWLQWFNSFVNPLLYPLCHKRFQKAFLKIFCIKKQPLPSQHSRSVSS

CCOC(=O)c1nc2ccc(OCCN3CCOCC3)cc2s1 [Compound 1a, Ethyl 6-(2-morpholinoethoxy)benzo[d]thiazole-2-carboxylate]
inhibition at 10 µM (human H4R): 39.2 ± 34.7% | IC50 (human AChE): > 10 µM | inhibition at 10 µM (human AChE): 7.64 ± 7.33% | inhibition at 10 µM (human H1R): < 0% | inhibition at 1 µM (human H3R): 63.3 ± 4.2%

CCOC(=O)c1nc2ccc(OCCN3CCCCC3)cc2s1 [Compound 1b, Ethyl 6-(2-(piperidin-1-yl)ethoxy)benzo[d]thiazole-2-carboxylate]
inhibition at 10 µM (human H4R): 61.7 ± 35.4% | IC50 (human AChE): > 10 µM | inhibition at 10 µM (human AChE): 9.25 ± 7.88% | inhibition at 10 µM (human H1R): < 0% | inhibition at 1 µM (human H3R): 35.2 ± 14.4%

CCOC(=O)c1nc2ccc(OCCN3CCCC3)cc2s1 [Compound 1c, Ethyl 6-(2-(pyrrolidin-1-yl)ethoxy)benzo[d]thiazole-2-carboxylate]
inhibition at 10 µM (human H4R): 54 ± 12.1% | IC50 (human AChE): 7.63 ± 1.6 µM | inhibition at 10 µM (human AChE): 57.2 ± 5.41% | inhibition at 10 µM (human H1R): 1 ± 9.7% | inhibition at 1 µM (human H3R): 50.2 ± 10.9%

COC(=O)c1nc2ccc(OCCN3CCOCC3)cc2s1 [Compound 1d, Methyl 6-(2-morpholinoethoxy)benzo[d]thiazole-2-carboxylate]
inhibition at 10 µM (human H4R): 51.3 ± 18.2% | IC50 (human AChE): > 10 µM | inhibition at 10 µM (human AChE): 5.52 ± 6.39% | inhibition at 10 µM (human H1R): 11.2 ± 10.5% | inhibition at 1 µM (human H3R): 25.3 ± 5.4%

COC(=O)c1nc2ccc(OCCN3CCCCC3)cc2s1 [Compound 1e, Methyl 6-(2-(piperidin-1-yl)ethoxy)benzo[d]thiazole-2-carboxylate]
IC50 (human AChE): 2.92 ± 0.37 µM | inhibition at 10 µM (human AChE): 84 ± 4.25% | inhibition at 10 µM (human H1R): 16.3 ± 41.7% | inhibition at 1 µM (human H3R): 54.2 ± 28.4%

COC(=O)c1nc2ccc(OCCCN[C@@H](Cc3ccc(O)cc3)C(=O)OC)cc2s1 [Compound 2a, Methyl (S)-6-(3-((3-(4-hydroxyphenyl)-1-methoxy-1-oxopropan-2-yl)amino)propoxy)benzo[d]thiazole-2-carboxylate]
inhibition at 10 µM (human H4R): 35.5 ± 32.1% | IC50 (human AChE): > 10 µM | inhibition at 10 µM (human AChE): < 0% | inhibition at 10 µM (human H1R): < 0% | inhibition at 1 µM (human H3R): 54.8 ± 21.2%

O=C(c1nc2ccc(OCCN3CCCCC3)cc2s1)N1CCCCC1 [Compound 3a, Piperidin-1-yl-(6-(2-(piperidin-1-yl)ethoxy)benzo[d]thiazol-2-yl)methanone]
inhibition at 10 µM (human H4R): 30.3 ± 24.9% | IC50 (human AChE): > 10 µM | inhibition at 10 µM (human AChE): 35.5 ± 13.4% | inhibition at 10 µM (human H1R): < 0% | Ki (human H3R): > 1 µM | inhibition at 1 µM (human H3R): 68 ± 9.1%

O=C(NCC1CCCCC1)c1nc2ccc(OCCNCC3CCCCC3)cc2s1 [Compound 3c, N-(Cyclohexylmethyl)-6-(2-((cyclohexylmethyl)amino)ethoxy)benzo[d]thiazole-2-carboxamide]
inhibition at 10 µM (human H4R): 52.8 ± 11.8% | IC50 (human AChE): > 10 µM | inhibition at 10 µM (human AChE): < 0% | inhibition at 10 µM (human H1R): 5.3 ± 14.2% | inhibition at 1 µM (human H3R): 31.5 ± 11.4%

O=C(NC1CCCCCC1)c1nc2ccc(OCCCNC3CCCCCC3)cc2s1 [Compound 3e, N-Cycloheptyl-6-(3-(cycloheptylamino)propoxy)benzo[d]thiazole-2-carboxamide]
inhibition at 10 µM (human H4R): 53.5 ± 15.2% | IC50 (human AChE): > 10 µM | inhibition at 10 µM (human AChE): 7.3 ± 2.31% | inhibition at 10 µM (human H1R): 12.1 ± 18.3% | inhibition at 1 µM (human H3R): 35.7 ± 11.5%

O=C(NCC1CCCCC1)c1nc2ccc(OCCCNCC3CCCCC3)cc2s1 [Compound 3f, N-(Cyclohexylmethyl)-6-(3-((cyclohexylmethyl)amino)propoxy)benzo[d]thiazole-2-carboxamide]
inhibition at 10 µM (human H4R): 60.8 ± 30.4% | IC50 (human AChE): > 10 µM | inhibition at 10 µM (human AChE): 3.2 ± 3.69% | inhibition at 10 µM (human H1R): 47.6 ± 12.9% | inhibition at 1 µM (human H3R): 46.3 ± 14.7%

O=C(NC1CC1)c1nc2ccc(OCCCNC3CC3)cc2s1 [Compound 3g, N-Cyclopropyl-6-(3-(cyclopropylamino)propoxy)benzo[d]thiazole-2-carboxamide]
inhibition at 10 µM (human H4R): 30.2 ± 14.3% | IC50 (human AChE): > 10 µM | inhibition at 10 µM (human AChE): 15.4 ± 11.2% | inhibition at 10 µM (human H1R): 13.6 ± 10.7% | inhibition at 1 µM (human H3R): 27.7 ± 12.8%

O=C(NC1CCCC1)c1nc2ccc(OCCCNC3CCCC3)cc2s1 [Compound 3i, N-Cyclopentyl-6-(3-(cyclopentylamino)propoxy)benzo[d]thiazole-2-carboxamide]
inhibition at 10 µM (human H4R): 50.5 ± 13% | IC50 (human AChE): 7.31 ± 1.59 µM | inhibition at 10 µM (human AChE): 59 ± 6.16% | inhibition at 10 µM (human H1R): 35.5 ± 9.8% | inhibition at 1 µM (human H3R): 51.2 ± 8.7%

O=C(NC1CCCCCC1)c1nc2ccc(OCCCCNC3CCCCCC3)cc2s1 [Compound 3k, N-Cycloheptyl-6-(4-(cycloheptylamino)butoxy)benzo[d]thiazole-2-carboxamide]
inhibition at 10 µM (human H4R): 61.5 ± 8.9% | IC50 (human AChE): > 10 µM | inhibition at 10 µM (human AChE): 9.7 ± 4.91% | inhibition at 10 µM (human H1R): 14.2 ± 11.7% | inhibition at 1 µM (human H3R): 39 ± 8.9%

O=C(NCC1CCCCC1)c1nc2ccc(OCCCCNCC3CCCCC3)cc2s1 [Compound 3l, N-(Cyclohexylmethyl)-6-(4-((cyclohexylmethyl)amino)butoxy)benzo[d]thiazole-2-carboxamide]
inhibition at 10 µM (human H4R): 49.7 ± 41% | IC50 (human AChE): > 10 µM | inhibition at 10 µM (human AChE): 16.7 ± 7.79% | inhibition at 10 µM (human H1R): 14.7 ± 8.5% | inhibition at 1 µM (human H3R): 57.3 ± 12.7%

O=C(NC1CC1)c1nc2ccc(OCCCCNC3CC3)cc2s1 [Compound 3m, N-Cyclopropyl-6-(4-(cyclopropylamino)butoxy)benzo[d]thiazole-2-carboxamide]
inhibition at 10 µM (human H4R): 53.6 ± 11.1% | IC50 (human AChE): > 10 µM | inhibition at 10 µM (human AChE): 13.2 ± 8.07% | inhibition at 10 µM (human H1R): 27 ± 10.6% | inhibition at 1 µM (human H3R): 67.8 ± 2.5%

O=C(NC1CCCCCC1)c1nc2ccc(OCCCCCNC3CCCCCC3)cc2s1 [Compound 3p, N-Cycloheptyl-6-((5-(cycloheptylamino)pentyl)oxy)benzo[d]thiazole-2-carboxamide]
inhibition at 10 µM (human H4R): 58.4 ± 8.3% | IC50 (human AChE): > 10 µM | inhibition at 10 µM (human AChE): 9.5 ± 3.58% | inhibition at 10 µM (human H1R): 17.5 ± 8.4% | inhibition at 1 µM (human H3R): 34 ± 7.5%

O=C(NCC1CCCCC1)c1nc2ccc(OCCCCCNCC3CCCCC3)cc2s1 [Compound 3q, N-(Cyclohexylmethyl)-6-((5-((cyclohexylmethyl)amino)pentyl)oxy)benzo[d]thiazole-2-carboxamide]
inhibition at 10 µM (human H4R): 49.1 ± 22.8% | IC50 (human AChE): > 10 µM | inhibition at 10 µM (human AChE): 22.2 ± 5.5% | inhibition at 10 µM (human H1R): 40.6 ± 8.2% | Ki (human H3R): > 3 µM

O=C(NC1CC1)c1nc2ccc(OCCCCCNC3CC3)cc2s1 [Compound 3r, N-Cyclopropyl-6-((5-(cyclopropylamino)pentyl)oxy)benzo[d]thiazole-2-carboxamide]
inhibition at 10 µM (human H4R): 51.6 ± 15.8% | IC50 (human AChE): > 10 µM | inhibition at 10 µM (human AChE): 14.8 ± 6.73% | inhibition at 10 µM (human H1R): 23.7 ± 12.7% | inhibition at 1 µM (human H3R): 38.8 ± 9.7%

CC1CC(C)CN(CCCOc2ccc3nc(C(=O)N4CC(C)CC(C)C4)sc3c2)C1 (stereo not shown) [Compound 4c, (3,5-Dimethylpiperidin-1-yl)(6-(3-(3,5-dimethylpiperidin-1-yl)propoxy)benzo[d]thiazol-2-yl)methanone]
IC50 (human AChE): > 10 µM | inhibition at 10 µM (human AChE): 6.9 ± 1.67% | inhibition at 1 µM (human H1R): 26.8 ± 31% | Ki (human H3R): 0.34 µM

O=C(NCCc1ccccc1)c1nc2ccc(OCCCNCCc3ccccc3)cc2s1 [Compound 4d, N-Phenethyl-6-(3-(phenethylamino)propoxy)benzo[d]thiazole-2-carboxamide]
IC50 (human AChE): > 10 µM | inhibition at 10 µM (human AChE): 5.2 ± 2.36% | inhibition at 1 µM (human H1R): 10.9 ± 37.1% | Ki (human H3R): > 1 µM

O=C(c1nc2ccc(OCCCN3CCc4ccccc4C3)cc2s1)N1CCc2ccccc2C1 [Compound 4e, (3,4-Dihydroisoquinolin-2(1H)-yl)(6-(3-(3,4-dihydroisoquinolin-2(1H)-yl)propoxy)benzo[d]thiazol-2-yl)methanone]
IC50 (human AChE): > 10 µM | inhibition at 10 µM (human AChE): 6.2 ± 3.15% | inhibition at 1 µM (human H1R): 9.7 ± 23% | Ki (human H3R): 0.34 µM

CCN1CCN(CCCOc2ccc3nc(C(=O)N4CCN(CC)CC4)sc3c2)CC1 [Compound 4f, (4-Ethylpiperazin-1-yl)(6-(3-(4-ethylpiperazin-1-yl)propoxy)benzo[d]thiazol-2-yl)methanone]
IC50 (human AChE): > 10 µM | inhibition at 10 µM (human AChE): 8.2 ± 1.64% | inhibition at 1 µM (human H1R): 3 ± 36% | Ki (human H3R): 0.43 µM

CN1CCN(CCCOc2ccc3nc(C(=O)N4CCN(C)CC4)sc3c2)CC1 [Compound 4g, (4-Methylpiperazin-1-yl)(6-(3-(4-methylpiperazin-1-yl)propoxy)benzo[d]thiazol-2-yl)methanone]
IC50 (human AChE): > 10 µM | inhibition at 10 µM (human AChE): 7.7 ± 1.87% | inhibition at 1 µM (human H1R): 4.8 ± 37.7% | Ki (human H3R): > 1 µM

CC1CN(CCCOc2ccc3nc(C(=O)N4CCNC(C)C4)sc3c2)CCN1 (stereo not shown) [Compound 4h, (3-Methylpiperazin-1-yl)(6-(3-(3-methylpiperazin-1-yl)propoxy)benzo[d]thiazol-2-yl)methanone]
IC50 (human AChE): > 10 µM | inhibition at 10 µM (human AChE): 8.3 ± 1.02% | inhibition at 1 µM (human H1R): 18.4 ± 27% | Ki (human H3R): 0.47 µM

O=C(c1nc2ccc(OCCCN3CCN(CCO)CC3)cc2s1)N1CCN(CCO)CC1 [Compound 4i, (4-(2-Hydroxyethyl)piperazin-1-yl)(6-(3-(4-(2-hydroxyethyl)piperazin-1-yl)propoxy)benzo[d]thiazol-2-yl)methanone]
IC50 (human AChE): > 10 µM | inhibition at 10 µM (human AChE): 7.3 ± 2.77% | inhibition at 1 µM (human H1R): 22.5 ± 27.4% | Ki (human H3R): 0.12 µM

O=C(NCc1ccccc1)c1nc2ccc(OCCCNCc3ccccc3)cc2s1 [Compound 4j, N-Benzyl-6-(3-(benzylamino)propoxy)benzo[d]thiazole-2-carboxamide]
IC50 (human AChE): > 10 µM | inhibition at 10 µM (human AChE): 20.3 ± 3.55% | inhibition at 1 µM (human H1R): 27 ± 39.4% | Ki (human H3R): 0.64 µM

CC1CCN(CCCOc2ccc3nc(C(=O)N4CCC(C)CC4)sc3c2)CC1 [Compound 4l, (4-Methylpiperidin-1-yl)(6-(3-(4-methylpiperidin-1-yl)propoxy)benzo[d]thiazol-2-yl)methanone]
IC50 (human AChE): > 10 µM | inhibition at 10 µM (human AChE): 8.4 ± 0.51% | inhibition at 1 µM (human H1R): 26.8 ± 26.3% | Ki (human H3R): 0.43 µM

CC(=O)N1CCN(CCCOc2ccc3nc(C(=O)N4CCN(C(C)=O)C(C)C4)sc3c2)CC1C (stereo not shown) [Compound 4m, 1-(4-(6-(3-(4-Acetyl-3-methylpiperazin-1-yl)propoxy)benzo[d]thiazole-2-carbonyl)-2-methylpiperazin-1-yl)ethan-1-one]
IC50 (human AChE): > 10 µM | inhibition at 10 µM (human AChE): 2.4 ± 2.06% | inhibition at 1 µM (human H1R): 27 ± 27.6% | Ki (human H3R): 0.4 µM
